The source of these data is BindingDB's records for patent US20230391786 (Eli Lilly, 2023).

Chain of Cyclic GMP-AMP synthase (Q8N884 whole entry): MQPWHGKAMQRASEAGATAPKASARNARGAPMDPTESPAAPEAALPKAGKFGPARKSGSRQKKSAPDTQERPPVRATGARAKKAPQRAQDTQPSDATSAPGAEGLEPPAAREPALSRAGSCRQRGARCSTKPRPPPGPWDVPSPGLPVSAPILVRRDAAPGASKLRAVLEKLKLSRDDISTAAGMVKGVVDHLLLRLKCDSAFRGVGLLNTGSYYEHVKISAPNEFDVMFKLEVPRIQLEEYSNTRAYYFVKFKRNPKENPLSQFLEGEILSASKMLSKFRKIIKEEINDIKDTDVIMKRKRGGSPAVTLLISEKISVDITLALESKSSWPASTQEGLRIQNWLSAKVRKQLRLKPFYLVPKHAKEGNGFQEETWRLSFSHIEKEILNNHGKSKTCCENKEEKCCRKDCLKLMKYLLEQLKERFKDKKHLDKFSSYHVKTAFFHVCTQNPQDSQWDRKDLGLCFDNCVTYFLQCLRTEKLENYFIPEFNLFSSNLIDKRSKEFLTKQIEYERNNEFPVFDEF

The assay has as its target Cyclic GMP-AMP synthase (Homo sapiens, UniProt Q8N884). Put plainly: In Vitro Inhibition Assay. The procedure:
In vitro inhibition assay of cGAS activity: Add a 5 μL mixture containing 10 mM Tris-Cl pH 7.5, 50 mM NaCl, 5 mM MgCl2, 1 mM DTT, 0.01% Triton X-100, 60 nM 75-bp dsDNA, […], 50 μM GTP, 10 nM of recombinant human cGAS, and serial dilutions of a test compound in DMSO to a 384-well plate and incubate at room temperature for 3 hours. Quench the reaction by the addition of 100 μL of stop solution containing 0.1% formic acid and 0.1 μM internal standard (3′3′-difluoro cGAMP). Measure the amount of cGAMP produced by RapidFire 365 mass spectrometry and evaluate inhibitory effect of a compound by plotting percent specific inhibition of cGAMP production against log concentration of the test compound.
One may read the IC50 as the midpoint of a concentration-inhibition curve. A lower IC50 goes with higher potency. In turn, `OCCn1cc(-n2cc(-c3cn[nH]c3)c3ccc(Cl)cc32)nn1` [US20230391786, Example 229] returned an IC50 of 96.5 nM.
`O=C(CCn1cncn1)N1CCn2c(c(-c3cn[nH]c3)c3ccc(Cl)c(Cl)c32)C1` [US20230391786, Example 49] yielded a half-maximal inhibitory concentration (IC50) of 83.9 nM.
Compound `NC1CCn2c1c(-c1cn[nH]c1)c1ccc(Cl)c(Cl)c12` (centres undefined) [US20230391786, Example 241] returned an IC50 of 62.5 nM.
The compound `Cn1ncnc1COCC(=O)N1CCn2c(c(-c3cn[nH]c3)c3c(OCC#N)cc(Cl)c(Cl)c32)C1` [US20230391786, Example 181] yielded a concentration for half-maximal inhibition (IC50) of 16.5 nM.
